Results published in ChEMBL document CHEMBL1126659, “5-chloro-3-(phenylsulfonyl)indole-2-carboxamide: a novel, non-nucleoside inhibitor of HIV-1 reverse transcriptase” (J Med Chem, 1993).
Structures can show the parent of a compound that is named as a salt.

System: MT4
Assay: Inhibition of cell culture in MT-4 cells
Type: functional
Details: Homo sapiens, read-out: CIC95

`Cc1ccnc2c1NC(=O)c1cccnc1N2C1CC1` [NEVIRAPINE] was tested. Which IC95 did it give?
The IC95 was 400 nM.

How did the IC95 turn out when `[O-][S+](Cc1[nH]c2ccc(Cl)cc2c1Sc1ccccc1)c1ccccc1` (stereo not given) was run?
The IC95 was 800 nM.

For `[O-][S+](Cc1[nH]c2ccccc2c1[S+]([O-])c1ccccc1)c1ccccc1` (stereo not given), which IC95 is on record?
Its IC95 is greater than 3000 nM.

Which IC95 does the source give for `[O-][S+](Cc1[nH]c2ccccc2c1Sc1ccccc1)c1ccccc1` (stereo not given) here?
Its IC95 is 400 nM.

With `CNC(=O)c1[nH]c2ccc(Cl)cc2c1Sc1ccccc1` as the compound, how does the IC95 read?
Its IC95 is 200 nM.

`CNC(=O)c1[nH]c2ccccc2c1Sc1ccccc1` was tested. Which IC95 did it give?
Its IC95 is 800 nM.

How did the IC95 turn out when `NC(=O)c1[nH]c2ccc(Cl)cc2c1S(=O)(=O)c1ccccc1` [L-737126] was run?
Its IC95 is 3 nM.

With `CN(C)C(=O)c1[nH]c2ccccc2c1Sc1ccccc1` as the compound, how does the IC95 read?
The IC95 was greater than 3000 nM.

Which IC95 does the source give for `NC(=O)c1[nH]c2ccc(Cl)cc2c1Sc1ccccc1` here?
Its IC95 is 200 nM.

With `CCc1cc(NCc2nc3c(Cl)ccc(Cl)c3o2)c(O)nc1C` [L-697661] as the compound, how does the IC95 read?
The IC95 was 50 nM.

With `NC(=O)c1[nH]c2ccc(Cl)cc2c1[S+]([O-])c1ccccc1` (stereo not given) as the compound, how does the IC95 read?
The IC95 was 200 nM.

For `COC(=O)c1[nH]c2ccc(Cl)cc2c1Sc1ccccc1`, which IC95 is on record?
The IC95 was 1500 nM.

With `CCNc1cccnc1N1CCN(C(=O)c2cc3cc(OC)ccc3[nH]2)CC1` [ATEVIRDINE MESYLATE] as the compound, how does the IC95 read?
Its IC95 is 3000 nM.

How did the IC95 turn out when `CC(C)=CCN1Cc2cc(Cl)cc3[nH]c(=S)n(c23)C[C@@H]1C` was run?
The IC95 was 400 nM.

With `COC(=O)c1[nH]c2ccccc2c1Sc1ccccc1` as the compound, how does the IC95 read?
Its IC95 is greater than 3000 nM.
